The results in this text go back to US12564580B2, “Mitochondria-targeted isoketal/isolevuglandin scavengers and uses thereof” (Vanderbilt University, priority 2020, dated 2026).

Data set [1] deals with endothelial nitric oxide. Briefly: Aortic nitric oxide by ESR and Fe(DETC)2 in angiotensin II-infused mice. The conditions noted are these: Ang II plus mito2HOBA. The class given is in vivo, mouse. As to the method:
FIGS. 12A-D show the effect of mito2HOBA supplementation on mitochondrial superoxide (A), vascular superoxide (B), endothelial nitric oxide (C) and endothelial-dependent relaxation (D) in angiotensin II-infused mice. Mitochondrial and vascular O2⋅ was measured by mitochondria-targeted superoxide probe mitoSOX (1 μM) or untargeted superoxide probe DHE (50 μM) using HPLC.46 Endothelial nitric oxide was analyzed by NO spin trap Fe(DETC)2 and ESR.47 C57B1/6J mice were infused with Ang II and mito2HOBA was provided in the drinking water (0.1 g/L). […] Results are mean±SEM. *P<0.01 vs Sham, **P<0.01 vs Ang II (n=6).
Nitric oxide production in aortas was quantified by ESR and colloid Fe(DETC)2 as we have described previously. All ESR samples were placed in quartz Dewar (Corning, New York, NY) filled with liquid nitrogen. ESR spectra were recorded using an EMX ESR spectrometer (Bruker Biospin Corp., Billerica, MA) and a super high Q microwave cavity. The ESR settings were as follows: field sweep, 160 Gauss; microwave frequency, 9.42 GHz; microwave power, 10 milliwatts; modulation amplitude, 3 Gauss; scan time, […]; time constant, 5.2 sec; and receiver gain, 60 dB (n=4 scans).

The subject of data set [2] is C57Bl/6J mice, Ang II-induced hypertension. Description: Blood pressure in angiotensin II model of hypertension (tail-cuff and telemetry). The data set is classed as in vivo, mouse. An excerpt: FIGS. 10A-D show the effect of mito2HOBA on angiotensin II-induced hypertension and accumulation of mitochondrial isoLGs protein adducts. (A) Blood pressure tail-cuff measurements in male Sham or angiotensin II-infused mice supplied with mito2HOBA in drinking water (0.1 g/L) or equimolar amount of untargeted analog 2HOBA (0.17 mmol/L). (B) Telemetry studies of blood pressure in angiotensin II-infused mice supplied with mito2HOBA or plain water as a vehicle. (C) Representative LC/MS/MS chromatograms of isoLG-Lysyl-Lactam adduct; (D) isoLG-Lys-Lactam levels in kidney mitochondria isolated from Sham or angiotensin II-infused mice supplied with mito2HOBA. Results are mean±SEM. *P<0.01 vs Sham, **P<0.01 vs Ang II (n=8).
Hypertension was induced by angiotensin II ([…]) as described previously. To test the therapeutic potential of scavenging of mitochondrial isoLGs, wild-type C57B1/6J male and female mice (Jackson Labs) received saline or angiotensin II minipump placement, and provided with the plain water (vehicle) or mito2HOBA in the drinking water (0.1 g/liter). Blood pressure was monitored by the telemetry and tail-cuff measurements as previously described. The Vanderbilt Institutional Animal Care and Use Committee approved the procedures (Protocol M1700207). Simple randomization was used to select animals for sham, angiotensin II or mito2HOBA groups for equal chance of being allocated to treatment groups.
To test a functional role of mitochondrial isoLGs in hypertension, we used an Ang II model of hypertension, and monitored blood pressure by tail-cuff (FIG. 10A) and telemetry (FIG. 10B). […] Infusion of wild-type C57B1/6J mice with Ang II (0.7 mg/kg/day) increased systolic blood pressure to 162 mm Hg.

The test system of data set [3] is SOD2 acetylation in human arterioles. Description: SOD2 acetylation in human arterioles treated ex vivo (Western blot). The class given is cell-based. The conditions noted are these: arterioles from hypertensive subjects, 0.5 μM, 24 hours, DMEM. How it is done:
FIGS. 8A-D show Western blots of mitochondrial isoLGs (A) in human arterioles from normotensive and hypertensive subjects (n=5), (B) development of mitochondria-targeted isoLG scavenger mito2HOBA and (C, D) SOD2 acetylation in human arterioles isolated from normotensive and hypertensive subjects and treated ex vivo with mito2HOBA (0.5 μM, 24 hours, DMEM). Data were normalized by Complex I levels (Sham is 100%). Data are mean±SEM. *P<0.01 vs Normotensive Sham, **P<0.01 vs Hypertensive (n=5).
Arterioles (100 to 200-μm diameter) were harvested from human mediastinal fat obtained from patients during cardiac surgery enrolled in the Risk of Oxygen during Cardiac Surgery (ROCS) randomized clinical trial with essential hypertension (BP>140/90 mmHg) and normotensive subjects as previously described for Western blot analysis of SOD2 and SOD2 acetylation. Full informed consent was obtained for all tissue samples.
Hypertension is associated with inactivation of mitochondrial deacetylase Sirt3 and hyperacetylation of mitochondrial superoxide dismutase (SOD2). To study the potential role of mitochondrial isoLGs in Sirt3 inactivation, we developed the mitochondria-targeted isoLG scavenger mito2HOBA (FIG. 8B). Mito2HOBA selectively accumulates in the mitochondria due to its lipophilic cation triphenylphosphonium. […]
On the technique in general: In western blotting, separated proteins are transferred to a membrane and probed.

Data set [4] can be described thus: Tolerability in animal experiments. The class given is in vivo. Particulars: doses from 0.1-0.3 g/L in drinking water. The text has this: (§1) Mito2HOBA is a water-soluble compound which can be supplied in the media and provided to animals in the drinking water.
The nature of data set [5]: Mass spectrometric analysis of mitochondria from mice given mito2HOBA in drinking water. The data set is classed as in vivo.
Source text: as §1

Where [6] appears, read: kidney and heart mitochondria, drinking water 0.1 g/L for 5-days.

As to `NCc1ccc(OCCCC[P+](c2ccccc2)(c2ccccc2)c2ccccc2)cc1O` [mito2HOBA], the endothelial nitric oxide entry in data set [1] is “completely prevented the decline”. This compound gave a systolic blood pressure in data set [2] (Ang II 0.7 mg/kg/day, mito2HOBA 0.1 g/L drinking water, tail-cuff and telemetry (Ang II alone 162)) of 140 mm Hg. Also, the “blood pressure in control mice” value in data set [2] (mito2HOBA alone, no Ang II) was “did not affect”. For the same compound, in data set [3], the SOD2 acetylation result is recorded as “significantly reduced”. Also, the tolerability entry in data set [4] is “well tolerated”. Moreover, in data set [5] (setting [6]), the “level in the mitochondrial fraction” value was “μM levels” and the “share accumulated in the mitochondrial fraction” value is recorded as 80%. Also, the “accumulation in the mitochondria of multiple organs” value in data set [5] (kidney, heart and liver) is “robustly accumulated”.
